Laboratory results taken from PubChem BioAssay (NCI).
“And” between values parts separate entries of the source, which are not always exact repeats. Equal entries are not always repeated.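 Five compound concentrations were applied to cells in 96-well plates for 48 hours; endpoints were derived by simple linear interpolation of the resulting dose-response curve. The concentration for 50% growth inhibition is given as GI50. TGI is the concentration that stops growth completely.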

How the values were obtained:
Assay in all cases: NCI anticancer screen, dose series, 48 h
ACHN renal = tested on: ACHN renal
COLO 205 colon = tested on: COLO 205 colon
DU-145 prostate = tested on: DU-145 prostate
HCT-116 colon = tested on: HCT-116 colon
K-562 leukemia = tested on: K-562 leukemia
MALME-3M melanoma = tested on: MALME-3M melanoma
PC-3 prostate = tested on: PC-3 prostate
SF-268 CNS = tested on: SF-268 CNS
SK-MEL-28 melanoma = tested on: SK-MEL-28 melanoma
SK-OV-3 ovarian = tested on: SK-OV-3 ovarian

SMILES | GI50 (ACHN renal) | TGI (ACHN renal) | GI50 (COLO 205 colon) | TGI (COLO 205 colon) | GI50 (DU-145 prostate) | TGI (DU-145 prostate) | GI50 (HCT-116 colon) | TGI (HCT-116 colon) | GI50 (K-562 leukemia) | TGI (K-562 leukemia) | GI50 (MALME-3M melanoma) [µM] | TGI (MALME-3M melanoma) [µM] | GI50 (PC-3 prostate) | TGI (PC-3 prostate) | GI50 (SF-268 CNS) [µM] | TGI (SF-268 CNS) [µM] | GI50 (SK-MEL-28 melanoma) | TGI (SK-MEL-28 melanoma) | GI50 (SK-OV-3 ovarian) | TGI (SK-OV-3 ovarian) [µM]
O=c1nc2oc3ccc4ccccc4c3cc-2s1 | 38.6 µM | > 100 µM | 16.3 µM | > 100 µM | 11.5 µM | > 100 µM | 1.14 µM | > 100 µM | 0.526 µM | > 100 µM | 0.743 | > 100 | 3.16 µM | > 100 µM | 7.97 | > 100 | 14.6 µM | > 100 µM | 15.1 µM | > 100
CCCCN(CCCC)c1ccc(C(=N)c2ccc(N(CCCC)CCCC)cc2)cc1 | 0.402 µM | 1.48 µM | 0.322 µM | 1.05 µM | 0.651 µM | 1.79 µM | 0.339 µM | 1.31 µM | 0.287 µM | 1.1 µM | 0.508 | 2.12 | 0.296 µM | 1.03 µM | 0.679 | 1.93 | 1.05 µM | 2.41 µM | 1.19 µM | 2.47
C=C1C(=O)OC2/C=C(/C)C(OC(C)=O)CC(O)/C(C)=C\C(OC(=O)/C(C)=C\C)C12 (centres undefined) |  | > 100 µM |  | > 100 µM |  | > 100 µM |  | 35.6 µM |  | > 100 µM |  | 30.9 |  | > 100 µM |  | > 100 |  | > 100 µM |  | > 100
COc1ccc2c(c1)C(=O)c1c-2c(N(C)C)nc2ccccc12 | > 100 µM | > 100 µM | > 100 µM | > 100 µM | > 100 µM | > 100 µM | > 100 µM | > 100 µM | > 100 µM | > 100 µM | > 100 | > 100 | > 100 µM | > 100 µM | 77.8 | > 100 | > 100 µM | > 100 µM | > 100 µM | > 100
CCOc1cc2ncc(C#N)c(Nc3ccc(OCc4ccccn4)c(Cl)c3)c2cc1NC(=O)/C=C/CN(C)C | 0.0358 µM and 0.0817 µM | 4.14 µM and > 10 µM | 1.04 µM and 0.598 µM | 24.7 µM and > 5.21 µM | 0.113 µM and 0.181 µM | 1.93 µM and 4.73 µM | 0.568 µM and 0.615 µM | 2.08 µM and 2.05 µM | 1.41 µM and 0.606 µM | 3.27 µM and 3.36 µM | 0.61 | 2.59 | 1.93 µM and 1.31 µM | 8.36 µM and > 9.32 µM | 0.563 | > 10 | 1.41 µM and 2.36 µM | 2.96 µM and > 10 µM | < 0.01 µM and 0.00218 µM | 
Cc1ccc(S(=O)(=O)Nc2cccc3[nH]c(C(F)(F)F)nc23)cc1 | 0.799 µM | > 60.6 µM | 0.387 µM | 10.7 µM | 1.2 µM | > 39.9 µM | 0.414 µM | > 100 µM | 0.269 µM | > 100 µM | 1.95 | 37.3 | 0.56 µM | > 68.8 µM | 1.87 | 54.6 | 0.654 µM | > 92.8 µM | 1.34 µM | 25
C/C=C(\C)C(=O)O[C@H]1C=CC(=O)O[C@@H]1CC[C@H](O)[C@H](C)O | 33.4 µM | > 92.8 µM | 30.6 µM | 72.6 µM | 34 µM | > 100 µM | 21.4 µM | 67.2 µM | 33 µM | > 100 µM | 29.3 | 70.6 | > 86.2 µM | > 100 µM | 28.8 | > 100 | 27.4 µM | 74.7 µM | > 100 µM | > 100
COc1cccc(-n2ncc3c(N/N=C/c4ccncc4)ncnc32)c1 | 0.985 µM | > 25 µM | 11.5 µM | > 25 µM | 4.55 µM | > 25 µM | 2.8 µM | > 25 µM | 0.779 µM | > 25 µM | > 25 | > 25 | > 17.1 µM | > 25 µM | > 25 | > 25 | > 25 µM | > 25 µM | 1.7 µM | > 25
C/C=C(/COC(C)=O)C(=O)OC1C=C(C=O)C(C)(C)C=C1C (centres undefined) |  | > 100 µM |  | > 100 µM |  | > 100 µM |  | > 100 µM |  | > 100 µM |  | > 100 |  | > 100 µM |  | > 100 |  | > 100 µM |  | > 100
Nc1[nH]nc2nc(-c3cccs3)cc(C(F)(F)F)c12 | > 21.6 µM | > 25 µM | > 25 µM | > 25 µM | > 25 µM | > 25 µM | > 17.9 µM | > 25 µM | > 25 µM | > 25 µM | > 25 | > 25 | > 25 µM | > 25 µM | > 25 | > 25 | > 25 µM | > 25 µM | > 25 µM | > 25
CC[C@H](CO)Nc1nc(NCc2ccccc2)n2ncc(C(C)C)c2n1 | 0.808 µM | 10.7 µM | 1.12 µM | 3.15 µM | 1.3 µM | 9.52 µM | 0.51 µM | 15 µM | 2.44 µM | 7.38 µM | 2.6 | 6.99 | 0.927 µM | 12.3 µM | 1.82 | 7.2 | 1.16 µM | 3.82 µM | 5.55 µM | 40.2
CS[C@]12C(=O)C[C@@]3(C)[C@@H](CC[C@]3(O)C(=O)CO)[C@@H]1CCC1=CC(=O)CC[C@@]12C |  | > 100 µM |  | > 100 µM |  | > 100 µM |  | > 100 µM |  | > 100 µM |  | > 100 |  | > 100 µM |  | > 100 |  | > 100 µM |  | > 100
Nc1nc(Nc2ccc(C3CCC(N4CCOCC4)CC3)cc2)nn1-c1ccccn1 (centres undefined) | 4.26 µM | > 100 µM | 5.17 µM | > 100 µM | 6.4 µM | > 100 µM | 2.92 µM | 20.7 µM | 2.83 µM | > 100 µM | 5.58 | > 46 | 5.76 µM | > 100 µM | 2.93 | > 100 | 4.34 µM | 16.4 µM | 18.1 µM | > 100
CC#CC(=O)SCCNC(=O)CC |  | > 10 µM |  | > 10 µM |  | > 10 µM |  | > 10 µM |  | > 10 µM |  | > 10 |  | > 10 µM |  | > 10 |  | > 10 µM |  | > 10
COc1c(Cl)cc(NC(=S)C#N)cc1Cl |  | > 80.1 µM |  | 32.2 µM |  | > 100 µM |  | 31.6 µM |  | > 100 µM |  | 59.6 |  | > 100 µM |  | > 89.9 |  | > 71.4 µM |  | > 74.7
CC1=C(CO)C(=O)O[C@@H]([C@@H](C)[C@H]2CC[C@H]3[C@@H]4C[C@@H](O)[C@@]5(O)CC=CC(=O)[C@]5(C)[C@H]4CC[C@]23C)C1 |  | 75.2 µM |  | > 100 µM |  | > 100 µM |  | 55.5 µM |  | > 100 µM |  | 44.7 |  | > 100 µM |  | > 100 |  | > 100 µM |  | > 100
O=C(Nc1ccc(Cl)cc1)Nc1ccc(Nc2nncc3ccccc23)cc1 | 1.12 µM | 7.12 µM | 2.77 µM | 9.58 µM | 3.17 µM | 26.9 µM | 2.46 µM | 12 µM | 1.68 µM | 26.4 µM | 3.94 | 16.5 | 2.32 µM | 11 µM | 3.19 | 28.1 | 3.04 µM | 12.8 µM | 3.05 µM | 17.7
O=C1c2c(O)cccc2C(C2OC(CO)C(O)C(O)C2O)c2cc(CO)cc(O)c21 (centres undefined) |  | > 100 µM |  | > 100 µM |  | > 100 µM |  | > 100 µM |  | > 100 µM |  | > 100 |  | > 100 µM |  | > 100 |  | > 100 µM |  | > 100
